From US10577363B2, “Substituted piperidine compounds” (EPIZYME, INC., priority 2014, dated 2020)
Each block holds one compound with its values, some of them ahead of it.

How the values were obtained:
SMYD3 [1] = biological target: T1, SMYD3 (Homo sapiens (Human), UniProt Q9H7B4); assay: SMYD3 biochemical assay (SPA, 3H-SAM methylation of MEKK2 protein substrate)
In short: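 Tritium incorporation into GST-MEKK2 is counted by scintillation proximity after citric acid bead capture. Native human SMYD3 is preincubated with test compound for 30 min at room temperature at pH 8.0 (Tris-Cl, TCEP, BSG, Tween 20) before 3H-SAM and substrate are added; cold SAM at 100 uM final stops turnover.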

SMYD3 [2] = biological target: T1, SMYD3; assay: SMYD3 cell assay (Trimethyl-MEKK2 In-Cell Western in 293T/17 cells); assay type: cell-based
Excerpt: Trimethyl-MEKK2-in-Cell Western Assay
MEM/Glutamax medium, Optimem Reduced Serum medium, penicillin-streptomycin, 0.05% trypsin and 1×D-PBS were purchased from Life Technologies, Grand Island, N.Y., USA. PBS-10× was purchased from Ambion, Life Technologies, Grand Island, N.Y., USA. PBS with Tween 20 (PBST (10×)) was purchased from KPL, Gaithersburg, Md., USA. Tet System FBS-approved FBS US Source was purchased from Clontech, Mountain View, Calif., USA. Odyssey blocking buffer, 800CW goat anti-rabbit IgG (H+L) antibody, 680CW Goat anti-mouse IgG (H+L) and Licor Odyssey infrared scanner were purchased from Licor Biosciences, Lincoln, Nebr., USA. Tri-methyl-Lysine [A260]-MEKK2 antibody, MEKK2 and SMYD3 plasmids were made at Epizyme. Anti-flag monoclonal mouse antibody was purchased from Sigma, St. Louis, Mo., USA. Methanol was purchased from VWR, Franklin, Mass., USA. 10% Tween 20 was purchased from KPL, Inc., Gaithersburg, Md., USA. Fugene was purchased from Promega, Madison, Wis., USA. The Biotek ELx405 was purchased from BioTek, Winooski, Vt., USA. The multidrop combi was purchased from Thermo Scientific, Waltham, Mass., USA.
Cell Treatment, in Cell Western (ICW) for Detection of Trimethyl-Lysine-MEKK2 and MEKK2.
Plasmids were prepared for delivery to cells by first mixing 1350 μL Opti-MEM with Fugene (81 μL) in a sterile Eppendorf and incubated for five minutes at room temperature (RT). […] Entire volume of Opti-MEM/Fugene mixture was then added to a microfuge tube containing DNA plasmid, mixed and then incubated×15 minutes at RT. […] Medium was then removed, and cells were washed once with PBS in the flask. Trypsin 0.05% (3 mL) was added and cells incubated for three minutes. Room temperature MEM+10% Tet system FBS was added and cells were mixed gently, and counted using the Vi-cell. Cells were seeded at 100,000 cells/mL in 50 μL MEM/10% Tet FBS/Pen/Strep to a 384 well black/clear poly-D-lysine coated plate containing test agent diluted in DMSO. The final top concentration of test compound was 40 μM. […] Plates were incubated×30 minutes at RT in low-airflow area, followed by incubation at 37° C. under 5% CO2 for 24 hours. Medium was aspirated from all wells of assay plates prior to fixation and permeabilization with ice cold (−20° C.) methanol (90 μL/well) for ten minutes. Plates were rinsed with PBS three times on BioTek ELx405. PBS was removed with a final aspiration, and Odyssey blocking buffer (50 μL/well) was added to each well and incubated for one hour at RT. Primary antibody solution was prepared (anti-trimethyl-MEKK2 at 1:600 dilution plus mouse anti-flag antibody at 1:10,000 dilution in diluent (Odyssey Blocking buffer+0.1% Tween 20)) and 20 μL per well was dispensed using the Multidrop Combi. Assay plates were then sealed with foil, and incubated overnight at 4° C. Plates were washed five times with PBS-Tween (1×) on Biotek ELx405 and blotted on paper towel to remove excess reagent.
First, the ratio for each well was determined by:
Each plate included fourteen control wells of DMSO only treatment (Minimum Inhibition) as well as fourteen control wells for maximum inhibition (Background). The average of the ratio values for each control type was calculated and used to determine the percent inhibition for each test well in the plate. Reference compound was serially diluted two-fold in DMSO for a total of nine test concentrations, beginning at 40 μM.
Percent inhibition was calculated (below).
Non-linear regression curves were generated to calculate the IC50 and dose-response relationship using triplicate wells per concentration of compound.

[3] = average of n = 1 to n = 50, read-out: SMYD3 Biochem IC50
[4] = average of n = 1 to n = 50, read-out: SMYD3 Cell IC50
[5] = Table 1A, IC50 values are an average of n = 1 to n = 50, read-out: SMYD3 Cell IC50
[6] = read-out: SMYD3 Biochem IC50 (μM)*
[7] = read-out: SMYD3 Cell IC50 (μM)*
[8] = 293T/17 cells, read-out: SMYD3 Cell IC50 (μM)*

T1 sequence (Q9H7B4 whole entry): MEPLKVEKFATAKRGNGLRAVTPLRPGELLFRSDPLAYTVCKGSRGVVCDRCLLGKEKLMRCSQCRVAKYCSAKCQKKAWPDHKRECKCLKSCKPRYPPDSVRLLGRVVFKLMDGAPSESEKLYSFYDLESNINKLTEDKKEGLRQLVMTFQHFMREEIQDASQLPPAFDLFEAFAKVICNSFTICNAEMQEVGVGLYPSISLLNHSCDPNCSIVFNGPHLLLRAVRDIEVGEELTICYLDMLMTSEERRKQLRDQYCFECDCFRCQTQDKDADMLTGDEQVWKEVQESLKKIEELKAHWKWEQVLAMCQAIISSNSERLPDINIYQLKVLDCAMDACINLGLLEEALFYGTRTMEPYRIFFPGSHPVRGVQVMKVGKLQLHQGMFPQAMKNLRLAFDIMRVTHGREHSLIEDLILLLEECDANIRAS

IC50 (SMYD3 [1]; read-out: SMYD3 Biochem IC50*): 0.0024 µM | IC50 (SMYD3 [2]; read-out: SMYD3 Cell IC50*): 0.113 µM
Compound: CCC[C@H]1C[C@@H](NC(=O)c2cc(C3CC3)on2)CCN1S(=O)(=O)CCCN [compound 806, N-((2S,4S)-1-((3-aminopropyl)sulfonyl)-2-propylpiperidin-4-yl)-5-cyclopropylisoxazole-3-carboxamide]

IC50 (SMYD3 [1]; Table 2A, read-out: SMYD3 Biochem IC50): 0.0212 µM | IC50 (SMYD3 [2]; Table 2A, read-out: SMYD3 Cell IC50): 0.304 µM
Compound: C[C@H]1CN(S(=O)(=O)N2CCC(NCc3ccccc3)CC2)CC[C@H]1NC(=O)c1cc(C2CC2)on1 [compound 614, N-((3S,4R)-1-((4-(benzylamino)piperidin-1-yl)sulfonyl)-3-methylpiperidin-4-yl)-5-cyclopropylisoxazole-3-carboxamide]

IC50 (SMYD3 [1]; [3]): 0.122 µM | IC50 (SMYD3 [2]; [4]): 1.78 µM
Compound: C[C@@H]1C[C@H](NC(=O)c2cc(C3CC3)on2)CCN1C(=O)c1ccc(N2CCNCC2)nc1 [compound 683, 5-cyclopropyl-N-((2R,4R)-2-methyl-1-(6-(piperazin-1-yl)nicotinoyl)piperidin-4-yl)isoxazole-3-carboxamide]

IC50 (SMYD3 [1]; [6]): 0.23 µM | IC50 (SMYD3 [2]; [7]): 1.42 µM
Compound: CC1(NC(=O)c2cc(C3CC3)on2)CCN(S(=O)(=O)CCCN)CC1 [compound 218, N-(1-((3-aminopropyl)sulfonyl)-4-methylpiperidin-4-yl)-5-cyclopropylisoxazole-3-carboxamide]

IC50 (SMYD3 [1]; [6]): 0.154 µM | IC50 (SMYD3 [2]; [8]): 0.676 µM
Compound: C[C@H]1C[C@@H](NC(=O)c2cc(C3CC3)on2)CCN1S(=O)(=O)c1ccccn1 [compound 275, 5-cyclopropyl-N-((2S,4S)-2-methyl-1-(pyridin-2-ylsulfonyl)piperidin-4-yl)isoxazole-3-carboxamide]

IC50 (SMYD3 [1]; [3]): 0.583 µM | IC50 (SMYD3 [2]; [4]): 2.41 µM
Compound: C[C@@H]1C[C@H](NC(=O)c2cc(C3CC3)on2)CCN1C(=O)c1ccc2c(c1)ncn2C [compound 747, 5-cyclopropyl-N-((2R,4R)-2-methyl-1-(1-methyl-1H-benzo[d]imidazole-5-carbonyl)piperidin-4-yl)isoxazole-3-carboxamide]

IC50 (SMYD3 [1]; read-out: SMYD3 Biochem IC50*): 0.0032 µM | IC50 (SMYD3 [2]; read-out: SMYD3 Cell IC50*): 0.124 µM
Compound: C[C@H]1C[C@@H](NC(=O)c2cc(C3CC3)on2)CCN1S(=O)(=O)C[C@@H]1CCC[C@@H](N)C1 [compound 819, N-((2S,4S)-1-((((1R,3R)-3-aminocyclohexyl)methyl)sulfonyl)-2-methylpiperidin-4-yl)-5-cyclopropylisoxazole-3-carboxamide]

IC50 (SMYD3 [2]; [5]): 4.49 µM
Compound: CC(C)[C@H]1C[C@@H](NC(=O)c2cc(C3CC3)on2)CCN1S(=O)(=O)CCCN [compound 501, N-((2R,4S)-1-((3-aminopropyl)sulfonyl)-2-isopropylpiperidin-4-yl)-5-cyclopropylisoxazole-3-carboxamide]

IC50 (SMYD3 [2]; [8]): 2.03 µM
Compound: C[C@@H]1C[C@H](NC(=O)c2cc(C3CC3)on2)CCN1C(=O)c1ccc(C2(N)CCC2)cc1 [compound 479, N-((2R,4R)-1-(4-(1-aminocyclobutyl)benzoyl)-2-methylpiperidin-4-yl)-5-cyclopropylisoxazole-3-carboxamide]

IC50 (SMYD3 [2]; [4]): 0.93 µM
Compound: C[C@@H]1CN(S(=O)(=O)CCCNCc2ccccc2)[C@H](C)C[C@@H]1NC(=O)c1cc(C2CC2)on1 [compound 681, N-((2R,4S,5R)-1-((3-(benzylamino)propyl)sulfonyl)-2,5-dimethylpiperidin-4-yl)-5-cyclopropylisoxazole-3-carboxamide]

IC50 (SMYD3 [1]; [6]): 3.18 µM
Compound: CCC1(C(=O)N2CCC(NC(=O)c3cc(C4CC4)on3)C[C@H]2C)CCNCC1 (stereo partly drawn) [compound 168, 5-cyclopropyl-N-((2R)-1-(4-ethylpiperidine-4-carbonyl)-2-methylpiperidin-4-yl)isoxazole-3-carboxamide]

IC50 (SMYD3 [1]; [6]): 0.117 µM
Compound: NCCC(=O)NC[C@H](Cc1ccc(O)c(I)c1)C(=O)N1CCC(NC(=O)c2cc(C3CC3)on2)CC1 [compound 35, (S)-N-(1-(3-(3-aminopropanamido)-2-(4-hydroxy-3-iodobenzyl)propanoyl)piperidin-4-yl)-5-cyclopropylisoxazole-3-carboxamide]

Further lines, the compound ahead of its results:

Compound: O=C(N[C@H]1C[C@H]2CC[C@@H](C1)N2S(=O)(=O)N1CCNC(CO)C1)c1cc(C2CC2)on1 (stereo partly drawn) [compound 643, 5-cyclopropyl-N-((1R,3r,5S)-8-((3-(hydroxymethyl)piperazin-1-yl)sulfonyl)-8-azabicyclo[3.2.1]octan-3-yl)isoxazole-3-carboxamide]
IC50 (SMYD3 [1]; [3]): 0.0378 µM | IC50 (SMYD3 [2]; [4]): 0.211 µM

Compound: O=C(N[C@H]1CCN(S(=O)(=O)CCCN2CCOCC2)[C@@H](Cc2ccccc2)C1)c1cc(C2CC2)on1 [compound 497, N-((2S,4S)-2-benzyl-1-((3-morpholinopropyl)sulfonyl)piperidin-4-yl)-5-cyclopropylisoxazole-3-carboxamide]
IC50 (SMYD3 [1]; Table 1A, IC50 values are an average of n = 1 to n = 50, read-out: SMYD3 Biochem IC50): > 10 µM | IC50 (SMYD3 [2]; [5]): > 10 µM

Compound: N[C@H]1CC[C@H](C(=O)N2[C@@H]3CC[C@H]2C[C@@H](NC(=O)c2cc(C4CC4)on2)C3)CC1 [compound 102, N-((1R,3R,5S)-8-((1r,4R)-4-aminocyclohexane-1-carbonyl)-8-azabicyclo[3.2.1]octan-3-yl)-5-cyclopropylisoxazole-3-carboxamide]
IC50 (SMYD3 [1]; [6]): 0.106 µM | IC50 (SMYD3 [2]; [7]): 1.7 µM

Compound: CC1(N)CCC(S(=O)(=O)N2[C@@H]3CC[C@H]2C[C@@H](NC(=O)c2cc(C4CC4)on2)C3)CC1 (stereo partly drawn) [compound 896, N-((1R,3R,5S)-8-(((1r,4R)-4-amino-4-methylcyclohexyl)sulfonyl)-8-azabicyclo[3.2.1]octan-3-yl)-5-cyclopropylisoxazole-3-carboxamide]
IC50 (SMYD3 [1]; read-out: SMYD3 Biochem IC50*): 0.014 µM | IC50 (SMYD3 [2]; read-out: SMYD3 Cell IC50*): 0.0866 µM

Compound: C[C@@H](C1CCN(C)CC1)S(=O)(=O)N1[C@@H]2CC[C@H]1C[C@@H](NC(=O)c1cc(C3CC3)on1)C2 [compound 816, 5-cyclopropyl-N-((1R,3S,5S)-8-(((S)-1-(1-methylpiperidin-4-yl)ethyl)sulfonyl)-8-azabicyclo[3.2.1]octan-3-yl)isoxazole-3-carboxamide]
IC50 (SMYD3 [1]; read-out: SMYD3 Biochem IC50*): 0.00291 µM | IC50 (SMYD3 [2]; read-out: SMYD3 Cell IC50*): 0.0523 µM

Compound: NCc1ccc(S(=O)(=O)N2[C@@H]3CC[C@H]2C[C@@H](NC(=O)c2cc(C4CC4)on2)C3)cc1 [compound 929, N-((1R,3r,5S)-8-((4-(aminomethyl)phenyl)sulfonyl)-8-azabicyclo[3.2.1]octan-3-yl)-5-cyclopropylisoxazole-3-carboxamide]
IC50 (SMYD3 [1]; read-out: SMYD3 Biochem IC50*): 0.0368 µM | IC50 (SMYD3 [2]; read-out: SMYD3 Cell IC50*): ≥ 10 µM

Compound: O=C(Nc1ccc(S(=O)(=O)N2[C@@H]3CC[C@H]2C[C@@H](NC(=O)c2cc(C4CC4)on2)C3)cc1)c1ccncc1 [compound 431, 5-cyclopropyl-N-((1R,3r,5S)-8-((4-(isonicotinamido)phenyl)sulfonyl)-8-azabicyclo[3.2.1]octan-3-yl)isoxazole-3-carboxamide]
IC50 (SMYD3 [1]; [6]): > 10 µM | IC50 (SMYD3 [2]; [8]): > 10 µM

Compound: O=C(N[C@@H]1C[C@H]2CC[C@@H](C1)N2S(=O)(=O)c1ccc2[nH]c(=O)[nH]c2c1)c1cc(C2CC2)on1 [compound 494, 5-cyclopropyl-N-((1R,3s,5S)-8-((2-oxo-2,3-dihydro-1H-benzo[d]imidazol-5-yl)sulfonyl)-8-azabicyclo[3.2.1]octan-3-yl)isoxazole-3-carboxamide]
IC50 (SMYD3 [2]; [5]): 5.18 µM
